13 molecules from US20210317140A1, “Heterocyclic Compounds and Methods of Use” (MEDIVATION TECHNOLOGIES, INC, priority 2013, published 2021) can be followed below.

What all share (format): biochemical
For assay [1], the target named is T1, BTK (Homo sapiens, UniProt Q06187).
T1 construct: purchased Reaction Biology Corporation
Put plainly: BTK kinase assay (HotSpot, 33P ATP). As to conditions: for BTK @ 0.1 μM (% Inh): 0.1 μM compound; for BTK @ 0.1 μM (% Inh) / BTK @ 0.01 μM (% Inh) / BTK @ 1 μM (% Inh): 10 μM ATP; for IC50: 10 dose IC50, 10 μM ATP; for BTK @ 0.01 μM (% Inh): 0.01 μM compound; for BTK @ 1 μM (% Inh): 1 μM compound. In short, it runs like this:
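In 20 mM Hepes (pH 7.5) with 10 mM MgCl2, 1 mM EGTA, 0.1 mM Na3VO4, 2 mM DTT, 0.02% Brij35, 0.02 mg/mL BSA and 1% DMSO, kinase and substrate were exposed to ten compound doses for 15–20 min.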

For assay [2], the target named is T2, PI3Kγ (Homo sapiens, UniProt P48736).
T2 construct: purchased Reaction Biology Corporation
T2 sequence (P48736 whole entry): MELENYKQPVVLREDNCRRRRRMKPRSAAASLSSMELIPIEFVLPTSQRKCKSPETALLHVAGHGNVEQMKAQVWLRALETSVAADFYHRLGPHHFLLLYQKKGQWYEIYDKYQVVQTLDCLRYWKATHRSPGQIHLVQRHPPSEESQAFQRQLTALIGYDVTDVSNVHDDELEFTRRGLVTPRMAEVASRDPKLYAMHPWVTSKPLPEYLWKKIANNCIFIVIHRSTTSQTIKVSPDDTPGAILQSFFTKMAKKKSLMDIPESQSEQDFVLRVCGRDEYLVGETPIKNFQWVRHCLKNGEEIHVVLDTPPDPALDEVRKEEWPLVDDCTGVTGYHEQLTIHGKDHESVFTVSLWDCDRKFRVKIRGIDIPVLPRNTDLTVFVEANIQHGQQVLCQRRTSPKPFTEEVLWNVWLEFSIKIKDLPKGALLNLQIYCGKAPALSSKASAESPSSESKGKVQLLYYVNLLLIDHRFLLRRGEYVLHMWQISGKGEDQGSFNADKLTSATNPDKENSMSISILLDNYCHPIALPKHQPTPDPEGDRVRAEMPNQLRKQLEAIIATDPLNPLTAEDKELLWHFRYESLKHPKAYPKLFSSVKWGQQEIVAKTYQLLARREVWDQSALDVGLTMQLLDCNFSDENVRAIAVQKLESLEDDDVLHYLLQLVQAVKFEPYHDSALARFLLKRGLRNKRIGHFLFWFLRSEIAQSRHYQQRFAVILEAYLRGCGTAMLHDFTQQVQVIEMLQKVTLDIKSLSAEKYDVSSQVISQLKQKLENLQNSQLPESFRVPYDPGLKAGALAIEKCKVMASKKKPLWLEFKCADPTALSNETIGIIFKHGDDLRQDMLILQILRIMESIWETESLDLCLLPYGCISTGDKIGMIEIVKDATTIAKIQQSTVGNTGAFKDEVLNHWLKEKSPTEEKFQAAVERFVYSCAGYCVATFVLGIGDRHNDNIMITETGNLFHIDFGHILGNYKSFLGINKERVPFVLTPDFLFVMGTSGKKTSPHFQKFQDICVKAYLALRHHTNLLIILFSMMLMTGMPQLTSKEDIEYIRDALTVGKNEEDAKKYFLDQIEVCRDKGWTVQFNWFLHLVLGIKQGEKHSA
Description: PI3Kγ isoform profiling (PI3Kδ protocol). The following applies: for PI3Kγ @ 0.3 μM (% Inh): 0.3 μM compound; for IC50: 10 dose IC50. An excerpt: PI3Kδ assay: The PIP3 product is detected by displacement of biotin-PIP3 from an energy transfer complex consisting of Europium labeled anti-GST monoclonal antibody, a GST-tagged pleckstrin homology (PH) domain, biotinylated PIP3 and Streptavidin-Allophycocyanin (APC). Excitation of Europium in the complex results in an energy transfer to the APC and a fluorescent emission at 665 nm. The PIP3 product formed by PI 3-Kinase(h) activity displaces biotin-PIP3 from the complex resulting in a loss of energy transfer and thus a decrease in signal. This is a 3-step reaction: First, the kinase reaction with PIP2 substrate is carried out in the presence of ATP (10 μM), and the reaction is quenched with stop Solution, and then finally detect by adding Detection Mixture followed by incubation (10 min). Reaction procedure: 1) Prepare substrate in freshly prepared Reaction Buffer. 2) Deliver kinase into the substrate solution and gently mix. 3) Deliver compounds in 100% DMSO (1 μM) into the kinase reaction mixture by Acoustic technology (Echo550; nanoliter range), incubate for 10 min at RT. 4) Deliver ATP into the reaction mixture to initiate the reaction. 5) Incubate for 30 min at 30° C. 6) Quench the reaction with Stop Solution. 7) Add Detection Mixture, and incubate for overnight. 8) Measure HTRF: Ex=320 nm, ratio of Em=615 nm and Em=665 nm. The emission ratio is converted into μM PIP3 production based on PIP3 standard curves. The nonlinear regression to obtain the standard curve and IC50 values are performed using Graphpad Prism software. Assay Buffer: HEPES 50 mM (pH7.0), NaN3 0.02%, BSA 0.01%, Orthovanadate 0.1 mM, 1% DMSO. Detection buffer: HEPES 10 mM (pH7.0), BSA 0.02%, KF 0.16 M, EDTA 4 mM. Substrate: 10 μM PIP2 substrate (PI(4,5)P2).
Compounds of the invention were profiled in a 10 dose IC50 panel against PI3Kα, PI3Kβ, and PI3Kγ kinases, provided by Reaction Biology Corporation, applied to the PI3Kδ protocol provided in Example B1.

The target in assay [3] is T3, BMX/ETK (Homo sapiens, UniProt P51813).
T3 construct: purchased Reaction Biology Corporation
T3 sequence (P51813 1-675): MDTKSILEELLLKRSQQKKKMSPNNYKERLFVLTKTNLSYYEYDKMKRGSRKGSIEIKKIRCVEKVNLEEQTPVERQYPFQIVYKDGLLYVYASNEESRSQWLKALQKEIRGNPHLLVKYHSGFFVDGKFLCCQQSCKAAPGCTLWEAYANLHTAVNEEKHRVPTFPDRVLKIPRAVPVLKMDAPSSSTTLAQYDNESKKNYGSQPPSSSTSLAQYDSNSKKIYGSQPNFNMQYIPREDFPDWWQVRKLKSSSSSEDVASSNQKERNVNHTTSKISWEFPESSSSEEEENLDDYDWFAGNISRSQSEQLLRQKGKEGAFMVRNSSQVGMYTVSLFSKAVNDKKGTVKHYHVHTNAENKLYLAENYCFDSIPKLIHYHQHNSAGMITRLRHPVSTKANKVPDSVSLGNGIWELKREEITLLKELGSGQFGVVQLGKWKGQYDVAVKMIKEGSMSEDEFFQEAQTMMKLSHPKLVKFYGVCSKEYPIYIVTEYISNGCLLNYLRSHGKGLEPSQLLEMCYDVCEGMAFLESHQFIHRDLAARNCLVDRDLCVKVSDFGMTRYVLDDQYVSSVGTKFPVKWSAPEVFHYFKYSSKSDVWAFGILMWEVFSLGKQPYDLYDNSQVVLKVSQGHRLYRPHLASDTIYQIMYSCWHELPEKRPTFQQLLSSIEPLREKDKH
Put plainly: BMX/ETK kinase profiling (BTK protocol). As to conditions: for BMX/ETK @ 0.3 μM (% Inh): 0.3 μM compound; for IC50: 10 dose IC50. As to the method:
BTK assay: In vitro profiling protein kinases was performed using the “HotSpot” assay platform. Briefly, specific kinase/substrate pairs along with required cofactors were prepared in reaction buffer. Compounds were prepared as 10 mM stock solutions in DMSO. Compounds were delivered into the reaction, followed 15-20 minutes later by addition of a mixture of ATP (Sigma, St. Louis Mo.) and ^33P ATP (Perkin Elmer, Waltham Mass.) to a final concentration of 10 μM. Reactions were carried out at RT for 120 min, followed by spotting of the reactions onto P81 ion exchange filter paper (Whatman Inc., Piscataway, N.J.). Unbound phosphate was removed by extensive washing of filters in 0.75% Phosphoric acid. […] IC50 values and curve fits were obtained using Prism (GraphPad Software). Buffer Conditions: 20 mM Hepes (pH 7.5), 10 mM MgCl2, 1 mM EGTA, 0.02% Brij35, 0.02 mg/mL BSA, 0.1 mM Na3VO4, 2 mM DTT, 1% DMSO.
Compounds of the invention were profiled in a 10 dose IC50 panel against BMX/ETK, ITK and TEC kinases, provided by Reaction Biology Corporation, applied to the BTK protocol provided in Example B1.

Molecules are shown by their SMILES.

T1 sequence (Q06187 whole entry): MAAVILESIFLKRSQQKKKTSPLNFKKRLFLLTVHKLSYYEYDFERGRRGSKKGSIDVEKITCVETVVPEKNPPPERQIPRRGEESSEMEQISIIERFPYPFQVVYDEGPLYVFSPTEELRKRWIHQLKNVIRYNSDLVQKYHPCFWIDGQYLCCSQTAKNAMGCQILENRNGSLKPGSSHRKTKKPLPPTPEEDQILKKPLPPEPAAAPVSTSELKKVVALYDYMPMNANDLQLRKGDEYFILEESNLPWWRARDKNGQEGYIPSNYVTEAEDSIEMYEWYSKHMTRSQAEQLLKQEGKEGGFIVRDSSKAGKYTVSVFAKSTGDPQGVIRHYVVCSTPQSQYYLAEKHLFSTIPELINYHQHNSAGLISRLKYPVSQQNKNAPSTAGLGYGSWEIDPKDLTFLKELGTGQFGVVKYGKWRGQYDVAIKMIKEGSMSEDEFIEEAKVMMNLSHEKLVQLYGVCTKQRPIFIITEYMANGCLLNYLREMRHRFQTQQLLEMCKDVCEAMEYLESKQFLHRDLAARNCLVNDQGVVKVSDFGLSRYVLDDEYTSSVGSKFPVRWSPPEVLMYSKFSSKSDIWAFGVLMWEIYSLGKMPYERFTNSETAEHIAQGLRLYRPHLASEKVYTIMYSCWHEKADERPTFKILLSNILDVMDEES

Turning to `C=CC(=O)N1CC(n2nc(-c3cc(O)cc(F)c3)c3c(N)ncnc32)Cc2cc(C)ccc21` (stereo not drawn) [compound 31, 1-(3-(4-amino-3-(3-fluoro-5-hydroxyphenyl)-1H-pyrazolo[3,4-d]pyrimidin-1-yl)-6-methyl-3,4-dihydroquinolin-1(2H)-yl)prop-2-en-1-one], in assay [1], the “BTK @ 0.1 μM (% Inh)” value is 68.24 % Inh and the half-maximal inhibitory concentration (IC50) stood at 17.4 nM. Besides, in assay [2], the “PI3Kγ @ 0.3 μM (% Inh)” value turned out to be 0.74 % Inh and 6460 nM corresponded to half-maximal inhibition (IC50). Moreover, in assay [3], the “BMX/ETK @ 0.3 μM (% Inh)” value is on record as 89.72 % Inh and the 50% inhibitory concentration (IC50) was found to be 6400 nM.

In turn, `Nc1ncnc2c1c(-c1ccc(F)c(O)c1)nn2C1CCc2ccccc2C1` (racemic) [Compound No. 26, 5-(4-amino-1-(1,2,3,4-tetrahydronaphthalen-2-yl)-1H-pyrazolo[3,4-d]pyrimidin-3-yl)-2-fluorophenol] gave an IC50 in assay [1] of 10.6 nM. Moreover, the “PI3Kγ @ 0.3 μM (% Inh)” value in assay [2] came out at 38.75 % Inh. Moreover, the “BMX/ETK @ 0.3 μM (% Inh)” value in assay [3] amounted to 92.36 % Inh.

Consider `Nc1ncnc2c1c(-c1cc(O)cc(F)c1)nn2C1CCc2ccccc2C1` (single isomer, unassigned) [6b, 3-(4-amino-1-(1,2,3,4-tetrahydronaphthalen-2-yl)-1H-pyrazolo[3,4-d]pyrimidin-3-yl)-5-fluorophenol], for which, in assay [1], the “BTK @ 0.1 μM (% Inh)” value was 45.78 % Inh and it took 112 nM to reach half-maximal inhibition (IC50). In addition, the “PI3Kγ @ 0.3 μM (% Inh)” value in assay [2] (0.3 µM) worked out at 45.57 % Inh. In addition, the “BMX/ETK @ 0.3 μM (% Inh)” value in assay [3] (0.3 µM) came out at 71.49 % Inh.

With `Nc1ncnc2c1c(-c1ccc(Cl)c(O)c1)cn2C1Cc2ccccc2C1` [Compound No. 93, 5-[4-amino-7-(2,3-dihydro-1H-inden-2-yl)-7H-pyrrolo[2,3-d]pyrimidin-5-yl]-2-chlorophenol], in assay [1], the “BTK @ 0.01 μM (% Inh)” value turned out to be 77.86 % Inh, the “BTK @ 0.1 μM (% Inh)” value was 96.32 % Inh and the IC50 turned out to be 0.8 nM. In assay [2], the “PI3Kγ @ 0.3 μM (% Inh)” value worked out at 72.89 % Inh. For the same molecule, the “BMX/ETK @ 0.3 μM (% Inh)” value in assay [3] was 110.06 % Inh.

With `Nc1ncnc2c1c(-c1ccc(Cl)c(O)c1F)nn2C1Cc2ccccc2C1` [Compound No. 100, 3-[4-amino-1-(2,3-dihydro-1H-inden-2-yl)-1H-pyrazolo[3,4-d]pyrimidin-3-yl]-6-chloro-2-fluorophenol], in assay [1], the “BTK @ 0.01 μM (% Inh)” value was 17.5 % Inh, the “BTK @ 0.1 μM (% Inh)” value was found to be 52.22 % Inh and it took 78 nM to reach half-maximal inhibition (IC50). Moreover, in assay [2], the “PI3Kγ @ 0.3 μM (% Inh)” value is 57.52 % Inh. Besides, the “BMX/ETK @ 0.3 μM (% Inh)” value in assay [3] is 107.37 % Inh.

For `Nc1ncnc2c1c(-c1cc(O)cc(F)c1)nn2C1Cc2ccc(F)cc2C1` (stereo not drawn) [compound 57, 3-[4-amino-1-(5-fluoro-2,3-dihydro-1H-inden-2-yl)-1H-pyrazolo[3,4-d]pyrimidin-3-yl]-5-fluorophenol], in assay [1], the “BTK @ 0.1 μM (% Inh)” value worked out at 63.18 % Inh, the “BTK @ 1 μM (% Inh)” value is on record as 93.26 % Inh and it took 134 nM to reach half-maximal inhibition (IC50). Also, the “PI3Kγ @ 0.3 μM (% Inh)” value in assay [2] is 30.85 % Inh. For the same molecule, in assay [3], the “BMX/ETK @ 0.3 μM (% Inh)” value is listed as 74.27 % Inh.

With `Nc1ncnc2c1c(-c1cc(O)cc(F)c1)nn2C1CCc2ccccc2C1` (single isomer, unassigned) [6a, 3-(4-amino-1-(1,2,3,4-tetrahydronaphthalen-2-yl)-1H-pyrazolo[3,4-d]pyrimidin-3-yl)-5-fluorophenol], in assay [1], the “BTK @ 0.1 μM (% Inh)” value was 63.12 % Inh and half-maximal inhibition (IC50) was put at 81.1 nM. For the same molecule, the “PI3Kγ @ 0.3 μM (% Inh)” value in assay [2] (0.3 µM) was found to be 38.58 % Inh. In addition, the “BMX/ETK @ 0.3 μM (% Inh)” value in assay [3] (0.3 µM) came to 84.79 % Inh.

In the case of `COc1cc(-c2nn(C3Cc4ccccc4C3)c3ncnc(N)c23)ccc1C` [Compound No. 49, 1-(2,3-dihydro-1H-inden-2-yl)-3-(3-methoxy-4-methylphenyl)-1H-pyrazolo[3,4-d]pyrimidin-4-amine], in assay [1], the “BTK @ 0.1 μM (% Inh)” value is reported as 75.02 % Inh, the “BTK @ 1 μM (% Inh)” value is listed as 96.31 % Inh and the IC50 is 57.1 nM. In addition, the “PI3Kγ @ 0.3 μM (% Inh)” value in assay [2] amounted to 30.41 % Inh. The “BMX/ETK @ 0.3 μM (% Inh)” value in assay [3] came out at 75.85 % Inh.

For the molecule `C=CC(=O)N1CC(n2nc(-c3cc(O)cc(F)c3)c3c(N)ncnc32)Cc2cc(C)ccc21` (single isomer, unassigned) [31b, 1-(3-(4-amino-3-(3-fluoro-5-hydroxyphenyl)-1H-pyrazolo[3,4-d]pyrimidin-1-yl)-6-methyl-3,4-dihydroquinolin-1(2H)-yl)prop-2-en-1-one], in assay [1], the “BTK @ 0.01 μM (% Inh)” value was determined as 64.36 % Inh, the “BTK @ 0.1 μM (% Inh)” value is reported as 93.12 % Inh and the half-inhibitory concentration (IC50) stood at 12.1 nM. Moreover, the “PI3Kγ @ 0.3 μM (% Inh)” value in assay [2] was 14.76 % Inh. In addition, in assay [3], the “BMX/ETK @ 0.3 μM (% Inh)” value is 88.04 % Inh.

Turning to `Nc1ncnc2c1c(-c1cc(O)cc(F)c1)cn2C1Cc2ccccc2C1` [Compound No. 63, 3-[4-amino-7-(2,3-dihydro-1H-inden-2-yl)-7H-pyrrolo[2,3-d]pyrimidin-5-yl]-5-fluorophenol], in assay [1], the “BTK @ 0.1 μM (% Inh)” value was 92.01 % Inh, the “BTK @ 1 μM (% Inh)” value was 98.56 % Inh and the IC50 came out at 4.2 nM. In addition, the “PI3Kγ @ 0.3 μM (% Inh)” value in assay [2] is given as 33.44 % Inh. In addition, the “BMX/ETK @ 0.3 μM (% Inh)” value in assay [3] came to 94.69 % Inh.

For `Nc1ncnc2c1c(-c1cc(O)c(F)c(F)c1)nn2C1Cc2ccccc2C1` [Compound No. 81, 5-[4-amino-1-(2,3-dihydro-1H-inden-2-yl)-1H-pyrazolo[3,4-d]pyrimidin-3-yl]-2,3-difluorophenol], in assay [1], the “BTK @ 0.1 μM (% Inh)” value is 73.83 % Inh, the “BTK @ 1 μM (% Inh)” value was determined as 94.81 % Inh and inhibition was half-maximal at 26.9 nM (IC50). Further, in assay [2], the “PI3Kγ @ 0.3 μM (% Inh)” value was 68.03 % Inh. Moreover, the “BMX/ETK @ 0.3 μM (% Inh)” value in assay [3] is 85.6 % Inh.

Consider `Nc1ncnc2c1c(-c1cc(O)cc(F)c1)nn2C1Cc2ccccc2C1` [compound 3, 3-(4-amino-1-(2,3-dihydro-1H-inden-2-yl)-1H-pyrazolo[3,4-d]pyrimidin-3-yl)-5-fluorophenol], for which the IC50 came to 67.3 nM in assay [1], 53.5 nM in assay [2] and 189 nM in assay [3].

For `Nc1ncnc2c1c(-c1ccc(Br)c(O)c1)nn2C1Cc2ccccc2C1` [compound 2, 5-(4-amino-1-(2,3-dihydro-1H-inden-2-yl)-1H-pyrazolo[3,4-d]pyrimidin-3-yl)-2-bromophenol], in assay [1], the “BTK @ 0.1 μM (% Inh)” value was found to be 78.45 % Inh. In addition, in assay [3], the IC50 came out at 7.7 nM.

The term IC50 denotes the point on the concentration scale where inhibition reaches its midpoint. Low readings indicate greater potency in that assay, high ones weaker potency in that assay.
